Values joined by “and” are separate entries in the source; they are usually repeats but may differ in a detail not shown here. Identical values can stand only once.
Legend:
Format in all cases: functional, Homo sapiens
TERT-RPE1 = test: (§1) Here: values are normalized to the negative (DMSO; defined as 0% autophagy induction) and positive (250nM Torin1; mTOR inhibitor; defined as maximal inducer of autophagy = 100%) control compounds and represented as % of autophagy induction. […] The impact of autophagy induction on cells is complex and depends on the affected target. As such, the magnitude of a phenotype may not be equally mirrored in the %-value of autophagy induction and vice versa. The dynamics of the induction may indicate the mode of activation: e.g. activation via phosphorylation or a signaling cascade may occur fast, while activation via transcription factors may take considerably longer. […] Of note, treatment concentrations may be sub-optimal for specific compounds, leading to false negative annotations.; conditions: Culturing Media DMEM/F12 (1:1), 1 % Penicillin/Streptomycin, 10% Fetal bovin serum Add-On: No, Screening Media Control DMEM/F12 (1:1), Screening Media Samples DMEM/F12 (1:1)
U2OS [1] = test: as §1; conditions: Culturing Media DMEM, 1 % Penicillin/Streptomycin, 10% Fetal bovin serum Add-On: No, Screening Media Control DMEM, Screening Media Samples DMEM
U2OS [2] = test: as §1; conditions: Culturing Media DMEM, 1 % Penicillin/Streptomycin, 10% Fetal bovin serum Add-On: No, Screening Media Control DMEM, Screening Media Samples DMEM; remark: listed apart in the source
[3] = Compound Concentration 0.5 uM, Timepoint 12 hours
[4] = Compound Concentration 0.5 uM, Timepoint 24 hours
[5] = Compound Concentration 0.5 uM, Timepoint 36 hours
[6] = Compound Concentration 0.5 uM, Timepoint 60 hours
[7] = Compound Concentration 2 uM, Timepoint 12 hours
[8] = Compound Concentration 2 uM, Timepoint 24 hours
[9] = Compound Concentration 2 uM, Timepoint 36 hours
[10] = Compound Concentration 2 uM, Timepoint 60 hours
[11] = Compound Concentration 10 uM, Timepoint 12 hours
[12] = Compound Concentration 10 uM, Timepoint 24 hours
[13] = Compound Concentration 10 uM, Timepoint 36 hours
[14] = Compound Concentration 10 uM, Timepoint 60 hours

`Cl.Clc1cccc(COc2cncc(N3CCNCC3)n2)c1` was tested, and the autophagy induction (TERT-RPE1; Compound Concentration 0.5 uM, Timepoint 12 hours, 12 h, 0.5 µM) was -4.107% and -8.741%, the autophagy induction (TERT-RPE1; Compound Concentration 0.5 uM, Timepoint 24 hours, 24 h, 0.5 µM) was -3.275% and -10.2873% and the autophagy induction (TERT-RPE1; Compound Concentration 0.5 uM, Timepoint 36 hours, 36 h, 0.5 µM) was -5.346% and -10.5791%. The autophagy induction (TERT-RPE1; Compound Concentration 0.5 uM, Timepoint 60 hours, 60 h, 0.5 µM) was -7.219% and -10.0498%, the autophagy induction (TERT-RPE1; Compound Concentration 2 uM, Timepoint 12 hours, 12 h, 2 µM) was 0.7021% and -1.765% and the autophagy induction (TERT-RPE1; Compound Concentration 2 uM, Timepoint 24 hours, 24 h, 2 µM) was 0.6926% and -5.584%. The autophagy induction (TERT-RPE1; Compound Concentration 2 uM, Timepoint 36 hours, 36 h, 2 µM) was 0.3671% and -11.5088%, the autophagy induction (TERT-RPE1; Compound Concentration 2 uM, Timepoint 60 hours, 60 h, 2 µM) was -2.572% and -13.6901% and the autophagy induction (TERT-RPE1; Compound Concentration 10 uM, Timepoint 12 hours, 12 h, 10 µM) was 10.122% and -0.2214%. For the same molecule, the autophagy induction (TERT-RPE1; Compound Concentration 10 uM, Timepoint 24 hours, 24 h, 10 µM) was 9.832% and 0.1054%, the autophagy induction (TERT-RPE1; Compound Concentration 10 uM, Timepoint 36 hours, 36 h, 10 µM) was 9.982% and -0.986% and the autophagy induction (TERT-RPE1; Compound Concentration 10 uM, Timepoint 60 hours, 60 h, 10 µM) was 11.761% and 2.73%. For the same molecule, the autophagy induction (U2OS [1]; [3]) was 7.085%, the autophagy induction (U2OS [1]; [4]) was -1.5773% and the autophagy induction (U2OS [1]; [5]) was -58.983%. It also gave an autophagy induction (U2OS [1]; [6]) of -0.334%, an autophagy induction (U2OS [1]; [7]) of 2.459% and an autophagy induction (U2OS [1]; [8]) of 2.019%. The autophagy induction (U2OS [1]; [9]) was -56.8827%, the autophagy induction (U2OS [1]; [10]) was 0.5358% and the autophagy induction (U2OS [1]; [11]) was -3.089%. It also gave an autophagy induction (U2OS [1]; [12]) of 5.923%, an autophagy induction (U2OS [1]; [13]) of -56.0685% and an autophagy induction (U2OS [1]; [14]) of -1.858%. The autophagy induction (U2OS [2]; [3]) was -8.837%, the autophagy induction (U2OS [2]; [4]) was -13.8803% and the autophagy induction (U2OS [2]; [5]) was -7.736%. It also gave an autophagy induction (U2OS [2]; [6]) of -11.4823%, an autophagy induction (U2OS [2]; [7]) of 2.897% and an autophagy induction (U2OS [2]; [8]) of 5.801%. The autophagy induction (U2OS [2]; [9]) was -1.494%, the autophagy induction (U2OS [2]; [10]) was -5.088% and the autophagy induction (U2OS [2]; [11]) was 27.4058%. The autophagy induction (U2OS [2]; [12]) was 16.7462%, the autophagy induction (U2OS [2]; [13]) was 7.428% and the autophagy induction (U2OS [2]; [14]) was 3.616%.

Work on `O=C(O)C1CN(Cc2ccc(OCc3ccc(Cl)c(Cl)c3)cc2)C1` yielded an autophagy induction (TERT-RPE1; [3]) of -8.997%, an autophagy induction (TERT-RPE1; [4]) of -11.1742% and an autophagy induction (TERT-RPE1; [5]) of -13.4476%. It also gave an autophagy induction (TERT-RPE1; [6]) of -16.3767%, an autophagy induction (TERT-RPE1; [7]) of -4.026% and an autophagy induction (TERT-RPE1; [8]) of -8.149%. For the same molecule, the autophagy induction (TERT-RPE1; [9]) was -12.0341%, the autophagy induction (TERT-RPE1; [10]) was -15.552% and the autophagy induction (TERT-RPE1; [11]) was -3.6803%. It also gave an autophagy induction (TERT-RPE1; [12]) of -2.7744%, an autophagy induction (TERT-RPE1; [13]) of -2.708% and an autophagy induction (TERT-RPE1; [14]) of -2.7926%. The autophagy induction (U2OS [1]; [3]) was -1.025%, the autophagy induction (U2OS [1]; [4]) was -0.5625% and the autophagy induction (U2OS [1]; [5]) was -1.224%. It also gave an autophagy induction (U2OS [1]; [6]) of -0.01663%, an autophagy induction (U2OS [1]; [7]) of 2.871% and an autophagy induction (U2OS [1]; [8]) of 0.8864%. For the same molecule, the autophagy induction (U2OS [1]; [9]) was 0.6277%, the autophagy induction (U2OS [1]; [10]) was 0.8248% and the autophagy induction (U2OS [1]; [11]) was 1.474%. For the same molecule, the autophagy induction (U2OS [1]; [12]) was 3.015%, the autophagy induction (U2OS [1]; [13]) was 1.861% and the autophagy induction (U2OS [1]; [14]) was 1.49%. It also gave an autophagy induction (U2OS [2]; [3]) of -6.393%, an autophagy induction (U2OS [2]; [4]) of -7.561% and an autophagy induction (U2OS [2]; [5]) of -8.567%. For the same molecule, the autophagy induction (U2OS [2]; [6]) was -6.096%, the autophagy induction (U2OS [2]; [7]) was 2.736% and the autophagy induction (U2OS [2]; [8]) was -0.6379%. For the same molecule, the autophagy induction (U2OS [2]; [9]) was 3.003%, the autophagy induction (U2OS [2]; [10]) was 6.192% and the autophagy induction (U2OS [2]; [11]) was 4.494%. The autophagy induction (U2OS [2]; [12]) was -1.815%, the autophagy induction (U2OS [2]; [13]) was -1.999% and the autophagy induction (U2OS [2]; [14]) was -2.676%.

Source: ChEMBL document CHEMBL5724696, “Autophagy assay results for EUbOPEN Chemogenomics Library” (2024)
